Experimental data reported in US20220273659A1, “HETEROCYCLIC COMPOUNDS AS KINASE INHIBITORS” (NUVATION BIO INC., priority 2019, published 2022).

Tests used:
[1] = test system: DU4475 breast carcinoma cells; test: Cancer cell proliferation assay, single agent (cell viability); type: cell-based; conditions: Homo sapiens, DU-4475; Table 4; Rb negative; treatment 144 Hr with medium change at 72 Hr; Cell Titer-Glo or resazurin
Summary of the method: (§1)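 Cells seeded day 1, then exposed on day 2 to 7–9 compound concentrations (e.g. 1.1 nM–10 μM); BT-549 for 24 h, MCF-7 and DU4475 for 144 h with medium change at 72 h. Viability by CellTiter-Glo or resazurin; IC50 from variable-slope sigmoidal fit.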

[2] = test system: MCF-7-PR (palbociclib-resistant MCF-7) cells; test: Cell viability in palbociclib-resistant cell line; type: cell-based; conditions: Homo sapiens, MCF7; Table 5; palbociclib-resistant cell line maintained at about 850 nM palbociclib
Description: Cells were treated with test compounds at 7 to 9 concentrations within a desired concentration range (e.g. 1.1 nM-10 μM) on day 2 by series diluting the test compound stock solution (10 mM in DMSO) with culture medium. Treatment duration was 24 Hr for BT-549 cells and 144 Hr (with a medium change at 72 Hr) for MCF-7 and DU4475 cells. Cell viability was assessed by Cell Titer-Glo® as recommended by Promega (Cat. No.: G7572), or by resazurin assay (Sigma Aldrich, Cat. No.: R7017) post treatment.
Cell viability data were plotted using GraphPad Prism (GraphPad Software, Inc., San Diego, Calif.). In addition, a nonlinear regression model with a sigmoidal dose response and variable slope within GraphPad Prism was used to calculate the IC50 value of individual test compounds.
The effects of test compounds in a palbociclib-resistant cell line and a parental, non-resistant cell line were compared. The palbociclib-resistant cell line (“MCF-7-PR”) was derived from the parental, non-resistant cell line (MCF-7 breast adenocarcinoma cells) by culture of cells over a period of three months in increasing concentrations of palbociclib, starting from about 350 nM and ending at about 850 nM, the final concentration at which they were then maintained in culture. The MCF-7-PR cells were checked using a cell viability assay to confirm that they had at least 5-fold resistance to palbociclib compared to parental MCF-7 cells, as measured by an increase in the cell viability IC50 values. Assessment of cell viability following treatment with palbociclib or test compounds was performed according to the method described above for MCF-7 cells.

CDK2 (cyclin A) = target: T1, CDK2 (cyclin A) (Homo sapiens, UniProt P24941); test: Z'-LYTE kinase assay; type: biochemical
T1 construct: purchased Invitrogen Life Technologies (assay service)
Summary of the method: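 FRET-based Z′-LYTE read-out using 1.22–10.3 ng CDK2/cyclin A with Ser/Thr 12 peptide (2 μM in the 2× mix) and ATP (31 μM as the 4× solution), in HEPES pH 7.5, MgCl2, EGTA and BRIJ-35, for 60 min at room temperature. After 1 h of development, the 445/520 nm emission was read, and percent inhibition was fitted to a four-parameter logistic curve for IC50.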

[3] = test system: Rb Ser780 phosphorylation in MCF-7 cells; test: Determination of pRb levels (Ser780 phosphorylation, ELISA); type: cell-based; conditions: Homo sapiens; for inhibition at 0.01 µM: MCF7, 0.01 μM; for inhibition at 0.01 µM / inhibition at 0.1 µM / inhibition at 1 µM: 24H treatment, percentage of vehicle control; for inhibition at 0.1 µM: MCF7, 0.1 μM; for inhibition at 1 µM: MCF7, 1 μM
Description: Hypo-phosphorylation of the retinoblastoma protein (Rb) by cyclin D:Cdk4/6 complexes results in active Rb, which is a clinically relevant biomarker associated with CDK4 or CDK6 inhibition. As a confirmatory measure of functional activity of CDK4/6, the Ser780 phosphorylation state of Rb was assessed. MCF-7 cells were plated at 2.5×10^5 to 3.0×10^6 cells/well in 6-well cell-culture plates and incubated at 37° C. for 24H in MEM medium supplemented with 10% FBS. Cells were treated for 24H with a medium containing test compound at various concentrations (e.g., 0.01, 0.1, […]) or with DMSO (≤1%) in duplicate. After incubation period, the media was removed, and cells were rinsed once with ice-cold PBS and lysed with 0.2 mL of Cell Lysis Buffer containing 1 mM PMSF and Protease Inhibitor. Protein concentration was estimated following Bradford method. The lysis and the Rb measurements were performed following the manufacturer's ELISA kit protocols and buffers (Cell Signaling Technology, Cat. No.: 13016C). Rb inhibition of test compounds was calculated as percentage of vehicle control. In some cases, a nonlinear regression model with a sigmoidal dose response and variable slope within GraphPad Prism was used to calculate the IC50 value of Rb inhibition for individual test compounds.

[4] = test system: BT-549 breast ductal carcinoma cells; test: Cancer cell proliferation assay, single agent (cell viability); type: cell-based; conditions: Homo sapiens, Table 4, Rb negative, treatment 24 Hr, Cell Titer-Glo or resazurin
Summary of the method: as §1

CDK9 (cyclin K) = target: T2, CDK9 (cyclin K) (Homo sapiens, UniProt P50750); test: LanthaScreen Eu Kinase Binding Assay
T2 construct: purchased Invitrogen Life Technologies (assay service)
T2 sequence (P50750 whole entry): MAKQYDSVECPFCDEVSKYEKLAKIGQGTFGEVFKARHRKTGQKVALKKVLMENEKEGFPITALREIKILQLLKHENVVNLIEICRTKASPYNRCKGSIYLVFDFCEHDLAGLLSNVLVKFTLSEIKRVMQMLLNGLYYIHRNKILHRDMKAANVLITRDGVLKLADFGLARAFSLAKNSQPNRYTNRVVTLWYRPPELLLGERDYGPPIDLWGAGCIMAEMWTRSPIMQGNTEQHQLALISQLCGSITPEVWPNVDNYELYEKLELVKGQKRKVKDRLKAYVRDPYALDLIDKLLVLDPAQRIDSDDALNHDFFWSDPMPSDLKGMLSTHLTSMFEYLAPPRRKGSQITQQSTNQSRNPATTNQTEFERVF
T2 sequence (O75909 whole entry partner): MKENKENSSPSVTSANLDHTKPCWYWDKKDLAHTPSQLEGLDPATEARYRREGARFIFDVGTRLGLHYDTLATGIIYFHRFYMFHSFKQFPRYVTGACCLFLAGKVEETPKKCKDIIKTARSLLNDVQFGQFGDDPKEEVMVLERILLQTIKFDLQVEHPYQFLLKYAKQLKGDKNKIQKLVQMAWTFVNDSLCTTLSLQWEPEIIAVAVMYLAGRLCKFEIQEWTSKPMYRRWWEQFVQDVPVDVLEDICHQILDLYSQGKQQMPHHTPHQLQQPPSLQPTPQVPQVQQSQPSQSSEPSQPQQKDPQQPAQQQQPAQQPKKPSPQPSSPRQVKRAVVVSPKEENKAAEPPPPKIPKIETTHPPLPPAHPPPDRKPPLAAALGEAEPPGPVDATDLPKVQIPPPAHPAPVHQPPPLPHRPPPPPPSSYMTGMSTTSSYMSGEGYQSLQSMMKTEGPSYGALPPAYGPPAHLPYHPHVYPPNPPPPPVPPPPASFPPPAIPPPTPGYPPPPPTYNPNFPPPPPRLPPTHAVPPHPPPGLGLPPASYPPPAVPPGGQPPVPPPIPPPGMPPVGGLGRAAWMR
Description: 0.16 μL of 100×test compound in 100% DMSO (at specific solutions) were mixed with 3.84 μL of Kinase Buffer (50 mM HEPES pH 7.5, 0.01% BRIJ-35, 10 mM MgCl2, 1 mM EGTA), 8.0 μL of 2× Kinase (5 nM)/Antibody (Eu-anti-His, 2 nM) Mixture and 4.0 μL of 4×Tracer (Tracer 236, 100 nM). The plates were shaken for 30 seconds, and incubated for 60 minutes at room temperature. The plates were read on fluorescence plate reader with Dual emission at 615 nm and 665 nm.
The following equations were used for LanthaScreen Eu Kinase Binding Assay Data Analysis. Percent inhibition (100-% activity) was fitted to the “four-parameter logistic model” in XLfit for determination of IC50 values.

Row | SMILES | IC50 [1] [nM] | IC50 [2] [nM] | IC50 (CDK2 (cyclin A)) [nM] | IC50 [4] [nM] | IC50 (CDK9 (cyclin K)) [nM] | IC50 ([3]; MCF7, 24H treatment, read-out: Inhibition of Rb phosphorylation IC50) [nM] | inhibition at 0.01 µM [3] [%] | inhibition at 0.1 µM [3] [%] | inhibition at 1 µM [3] [%]
1 | CS(=O)(=O)N1CCC(Nc2ncc3cc(C#N)c(=O)n(C4CCC(F)(F)C4)c3n2)CC1 (racemic) [Compound No. 345, 8-(3,3-difluorocyclopentyl)-2-((1-(methylsulfonyl)piperidin-4-yl)amino)-7-oxo-7,8-dihydropyrido[2,3-d]pyrimidine-6-carbonitrile] | 3690 | 6230 | 30 | – | – | – | – | – | –
2 | N#Cc1cc2cnc(Nc3ccc(N4CCNCC4)c(F)c3)nc2n(C2CCCC2)c1=O [Compound No. 13, 8-cyclopentyl-2-((3-fluoro-4-(piperazin-1-yl)phenyl)amino)-7-oxo-7,8-dihydropyrido[2,3-d]pyrimidine-6-carbonitrile] | – | 481 | – | 1400 | – | – | 35 | 58 | 93
3 | N#Cc1cc2cnc(Nc3ccc4c(c3)CNCC4)nc2n(C2CCCC2)c1=O [Compound No. 29, 8-cyclopentyl-7-oxo-2-((1,2,3,4-tetrahydroisoquinolin-7-yl)amino)-7,8-dihydropyrido[2,3-d]pyrimidine-6-carbonitrile] | 1280 | – | 42 | – | – | – | 12 | 27 | 44
4 | CS(=O)(=O)N1CCC(Nc2ncc3cc(C#N)c(=O)n(C4CC5CC5C4)c3n2)CC1 (stereo not shown) [Compound No. 341, 8-(bicyclo[3.1.0]hexan-3-yl)-2-((1-(methylsulfonyl)piperidin-4-yl)amino)-7-oxo-7,8-dihydropyrido[2,3-d]pyrimidine-6-carbonitrile] | 940 | 690 | 7 | – | – | – | – | – | –

The next lines start with results.

Row | IC50 [1] [nM] | IC50 [2] [nM] | IC50 (CDK2 (cyclin A)) [nM] | IC50 [4] [nM] | IC50 (CDK9 (cyclin K)) [nM] | IC50 ([3]; MCF7, 24H treatment, read-out: Inhibition of Rb phosphorylation IC50) [nM] | SMILES | inhibition at 0.01 µM [3] [%] | inhibition at 0.1 µM [3] [%] | inhibition at 1 µM [3] [%]
5 | 525 | 248 | 32 | 1110 | 20 | – | N#Cc1cc2cnc(Nc3ccc4c(c3)CCNC4)nc2n(C2CCCC2)c1=O [Compound No. 31, 8-cyclopentyl-7-oxo-2-((1,2,3,4-tetrahydroisoquinolin-6-yl)amino)-7,8-dihydropyrido[2,3-d]pyrimidine-6-carbonitrile] | 1 | 27 | 95
6 | 793 | 911 | 2.5 | – | – | < 123 | CS(=O)(=O)N1CCC(Nc2ncc3cc(C#N)c(=O)n(C4CCCC4)c3n2)CC1 [Compound No. 93, 8-cyclopentyl-2-((1-(methylsulfonyl)piperidin-4-yl)amino)-7-oxo-7,8-dihydropyrido[2,3-d]pyrimidine-6-carbonitrile] | – | – | –
7 | 485 | 361 | 41 | – | – | – | N#Cc1cc2cnc(Nc3ccc4c(c3)CCNC4)nc2n(C2CC3CC3C2)c1=O (stereo not shown) [Compound No. 342, 8-(bicyclo[3.1.0]hexan-3-yl)-7-oxo-2-((1,2,3,4-tetrahydroisoquinolin-6-yl)amino)-7,8-dihydropyrido[2,3-d]pyrimidine-6-carbonitrile] | – | – | –
